From patent US10065956B2, “Ethynyl derivatives” (Hoffmann-La Roche Inc., priority 2015, dated 2018)

Assays:
mice [1] = conditions: mice treated with MPTP; cited from earlier work
rodent = conditions: 6-OHDA rodent model of PD; cited from earlier work
rats = conditions: cited from earlier work
mice [2] = conditions: reported by Addex 2010; cited from earlier work
mice [3] = conditions: reported by Addex 2010; cited from earlier work; remark: listed apart in the source
human mGlu4 receptor = molecular target: T1, human mGlu4 receptor (Homo sapiens, UniProt Q14833); assay: Ca2+ mobilization in vitro assay on recombinant human mGlu4 expressed in HEK293 cells (PAM, L-AP4 at EC20); format: cell-based; conditions: for Emax: HEK293, maximal response in % of the maximal stimulatory effect obtained with saturating concentrations of L-AP4, read-out: Eff. (%); for EC50: HEK293 cells expressing human mGlu4, L-AP4 added at EC20
T1 construct: expressed in transfected cells; host or cells: monoclonal HEK-293 cell line, stably transfected
T1 sequence (Q14833 33-912): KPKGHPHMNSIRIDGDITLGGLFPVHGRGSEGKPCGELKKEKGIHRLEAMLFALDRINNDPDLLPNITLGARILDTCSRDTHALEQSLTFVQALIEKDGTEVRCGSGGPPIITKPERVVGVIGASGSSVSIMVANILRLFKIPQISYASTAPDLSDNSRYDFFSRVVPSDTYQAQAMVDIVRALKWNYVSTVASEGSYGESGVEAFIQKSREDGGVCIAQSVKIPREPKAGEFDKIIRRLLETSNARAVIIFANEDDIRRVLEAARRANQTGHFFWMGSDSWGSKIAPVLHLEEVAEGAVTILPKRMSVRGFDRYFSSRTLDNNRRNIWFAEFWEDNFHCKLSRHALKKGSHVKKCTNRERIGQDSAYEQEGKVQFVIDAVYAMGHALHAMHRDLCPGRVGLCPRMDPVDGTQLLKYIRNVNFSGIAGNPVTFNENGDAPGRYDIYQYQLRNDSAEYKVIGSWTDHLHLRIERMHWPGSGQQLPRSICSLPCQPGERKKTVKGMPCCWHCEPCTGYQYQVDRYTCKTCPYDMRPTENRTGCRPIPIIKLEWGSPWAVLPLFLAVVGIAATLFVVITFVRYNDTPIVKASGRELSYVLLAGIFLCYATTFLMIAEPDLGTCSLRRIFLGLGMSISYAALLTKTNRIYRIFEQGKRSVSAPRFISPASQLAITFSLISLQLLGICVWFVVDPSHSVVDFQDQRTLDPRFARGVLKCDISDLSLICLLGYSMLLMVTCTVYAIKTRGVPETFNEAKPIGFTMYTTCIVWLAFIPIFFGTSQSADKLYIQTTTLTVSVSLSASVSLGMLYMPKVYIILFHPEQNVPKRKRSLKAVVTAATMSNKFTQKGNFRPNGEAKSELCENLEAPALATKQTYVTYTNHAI
Text: FIG. 1: Illustration of the experimental outline for mGlu4 PAM Ca2+ mobilization screening assay and the determination of EC50 and % Emax values.
Determination of EC50 Values Using a Ca2+ Mobilization In Vitro Assay on Recombinant Human mGlu4 Expressed in HEK293 Cells:
A monoclonal HEK-293 cell line stably transfected with a cDNA encoding for the human mGlu4 receptor was generated; for the work with mGlu4 Positive Allosteric Modulators (PAMs), a cell line with low receptor expression levels and low constitutive receptor activity was selected to allow the differentiation of agonistic versus PAM activity. Cells were cultured according to standard protocols (Freshney, 2000) in Dulbecco's Modified Eagle Medium with high glucose supplemented with 1 mM glutamine, 10% (vol/vol) heat-inactivated bovine calf serum, Penicillin/Streptomycin, 50 μg/ml hygromycin and 15 μg/ml blasticidin (all cell culture reagents and antibiotics from Invitrogen, Basel, Switzerland).
About 24 hrs before an experiment, 5×10^4 cells/well were seeded in poly-D-lysine coated, black/clear-bottomed 96-well plates. The cells were loaded with 2.5 μM Fluo-4AM in loading buffer (1×HBSS, 20 mM HEPES) for 1 hr at 37° C. and washed five times with loading buffer. The cells were transferred into a Functional Drug Screening System 7000 (Hamamatsu, Paris, France), and 11 half logarithmic serial dilutions of test compound at 37° C. were added and the cells were incubated for 10-30 min. with on-line recording of fluorescence. Following this pre-incubation step, the agonist (2S)-2-amino-4-phosphonobutanoic acid (L-AP4) was added to the cells at a concentration corresponding to EC20 with on-line recording of fluorescence; in order to account for day-to-day variations in the responsiveness of cells, the EC20 of L-AP4 was determined immediately ahead of each experiment by recording of a full dose-response curve of L-AP4. Responses were measured as peak increase in fluorescence minus basal (i.e. fluorescence without addition of L-AP4), normalized to the maximal stimulatory effect obtained with saturating concentrations of L-AP4. Graphs were plotted with the % maximal stimulatory using XLfit, a curve fitting program that iteratively plots the data using Levenburg Marquardt algorithm. The single site competition analysis equation used was y=A+((B−A)/(1+((x/C)D))), where y is the % maximal stimulatory effect, A is the minimum y, B is the maximum y, C is the EC50, x is the log 10 of the concentration of the competing compound and D is the slope of the curve (the Hill Coefficient). From these curves the EC50 (drug concentration at which 50% of the maximal receptor activation was achieved), the Hill coefficient as well as the maximal response in % of the maximal stimulatory effect obtained with saturating concentrations of L-AP4 were calculated (see FIG. 1). […] A depression of the signal observed after addition of the EC20 concentration of L-AP4 was indicative of an inhibitory activity of the test compound.

Row | Emax (human mGlu4 receptor) [%] | EC50 (human mGlu4 receptor) [nM] | Compound | further results
1 | 156 | 97 | CN1C(=O)N(c2c(F)cc(C#Cc3ccccc3)cc2F)C(=O)C[C@@]1(C)c1ccn(CCO)n1 [Example 46, (S)-3-(2,6-Difluoro-4-(phenylethynyl)phenyl)-6-(1-(2-hydroxyethyl)-1H-pyrazol-3-yl)-1,6-dimethyldihydropyrimidine-2,4(1H,3H)-dione] | 
2 | 147 | 50 | CN1C(=O)N(c2c(F)cc(C#Cc3ccccc3F)cc2F)C(=O)C[C@@]1(C)c1cnn(C)c1 [Example 50, (6S)-3-[2,6-Difluoro-4-[2-(2-fluorophenyl)ethynyl]phenyl]-1,6-dimethyl-6-(1-methylpyrazol-4-yl)hexahydropyrimidine-2,4-dione] | 
3 | 143 | 97 | CN1C(=O)N(c2c(F)cc(C#Cc3cccc(F)c3F)cc2F)C(=O)C[C@@]1(C)c1cnn(C)c1 [Example 57, (6S)-3-[4-[2-(2,3-Difluorophenyl)ethynyl]-2,6-difluoro-phenyl]-1,6-dimethyl-6-(1-methylpyrazol-4-yl)hexahydropyrimidine-2,4-dione] | 
4 | 135 | 27 | CN1C(=O)N(c2c(F)cc(C#Cc3ccc(F)cc3)cc2F)C(=O)C[C@@]1(C)c1cn[nH]c1 [Example 54, (6S)-3-[2,6-Difluoro-4-[2-(4-fluorophenyl)ethynyl]phenyl]-1,6-dimethyl-6-(1H-pyrazol-4-yl)hexahydropyrimidine-2,4-dione] | 
5 | 145 | 17 | CN1C(=O)N(c2c(F)cc(C#Cc3ccccc3F)cc2F)C(=O)C[C@@]1(C)c1cn[nH]c1 [Example 53, (6S)-3-[2,6-Difluoro-4-[2-(2-fluorophenyl)ethynyl]phenyl]-1,6-dimethyl-6-(1H-pyrazol-4-yl)hexahydropyrimidine-2,4-dione] | 
6 | 127 | 31 | CN1C(=O)N(c2c(F)cc(C#Cc3ccccc3)cc2F)C(=O)C[C@@]1(C)c1cnn(C2CC2)c1 [Example 52, (6S)-6-(1-Cyclopropylpyrazol-4-yl)-3-[2,6-difluoro-4-(2-phenylethynyl)phenyl]-1,6-dimethyl-hexahydropyrimidine-2,4-dione] | 
7 | 134 | 54 | CN1C(=O)N(c2c(F)cc(C#Cc3cccc(F)c3F)cc2F)C(=O)C[C@@]1(C)c1cn[nH]c1 [Example 55, (6S)-3-[4-[2-(2,3-Difluorophenyl)ethynyl]-2,6-difluoro-phenyl]-1,6-dimethyl-6-(1H-pyrazol-4-yl)hexahydropyrimidine-2,4-dione] | 
8 | 110 | 63 | CN1C(=O)N(c2c(F)cc(C#Cc3ccccc3)cc2F)C(=O)C[C@@]1(C)c1cnn(CC2COC2)c1 [Example 61, (6S)-3-[2,6-Difluoro-4-(2-phenylethynyl)phenyl]-1,6-dimethyl-6-[1-(oxetan-3-ylmethyl)pyrazol-4-yl]hexahydropyrimidine-2,4-dione] | 
9 | 151 | 67 | CN1C(=O)N(c2c(F)cc(C#Cc3ccccc3)cc2F)C(=O)C[C@@]1(C)c1ccns1 [Example 43, (6S)-3-[2,6-Difluoro-4-(2-phenylethynyl)phenyl]-6-isothiazol-5-yl-1,6-dimethyl-hexahydropyrimidine-2,4-dione] | 

More lines, now with the values behind:

Row | Compound | Emax (human mGlu4 receptor) [%] | EC50 (human mGlu4 receptor) [nM] | further results
10 | O=C(Nc1ccccc1)C12CC1/C(=N\O)c1ccccc1O2 (single isomer, unassigned; (-)) [(−)-PHCCC] |  |  | nigrostriatal degeneration (mice [1]): reduced nigrostriatal degeneration
11 | N[C@@H](CCP(=O)(O)O)C(=O)O [L-AP4, (2S)-2-amino-4-phosphonobutanoic acid] |  |  | neuroprotection in 6-OHDA model (rodent): neuroprotective effects
12 | Cc1ccnc(Nc2nc(-c3cn[nH]c3)c(C)s2)n1 [ADX88178] |  |  | profile in the rat EPM test (rats; rat, after oral dosing): anxiolytic-like profile; activity in EPM (rats; rats, reported by Addex 2010): active; activity in EPM (mice [2]): active; activity in marble burying test (mice [3]): active
13 | CN1C(=O)N(c2c(F)cc(C#Cc3ccccc3)cc2F)C(=O)C[C@@]1(C)c1cc[nH]n1 [Example 10, (6S)-3-[2,6-Difluoro-4-(2-phenylethynyl)phenyl]-1,6-dimethyl-6-(1H-pyrazol-3-yl)hexahydropyrimidine-2,4-dione] | 134 | 84 | 
14 | CN1C(=O)N(c2c(F)cc(C#Cc3cnsc3)cc2F)C(=O)C[C@@]1(C)c1cnn(C)c1 [Example 25, (6S)-3-[2,6-Difluoro-4-(2-isothiazol-4-ylethynyl)phenyl]-1,6-dimethyl-6-(1-methylpyrazol-4-yl)hexahydropyrimidine-2,4-dione] | 149 | 45 | 
15 | COCCCn1ccc([C@]2(C)CC(=O)N(c3c(F)cc(C#Cc4ccccc4)cc3F)C(=O)N2C)n1 [Example 31, (6S)-3-[2,6-Difluoro-4-(2-phenylethynyl)phenyl]-6-[1-(3-methoxypropyl)pyrazol-3-yl]-1,6-dimethyl-hexahydropyrimidine-2,4-dione] | 117 | 23 | 
16 | CN1C(=O)N(c2c(F)cc(C#Cc3ccccc3)cc2F)C(=O)C[C@@]1(C)c1nn(C)c2ncccc12 [Example 17, (6S)-3-[2,6-Difluoro-4-(2-phenylethynyl)phenyl]-1,6-dimethyl-6-(1-methylpyrazolo[3,4-b]pyridin-3-yl)hexahydropyrimidine-2,4-dione] | 154 | 126 | 
17 | CN1C(=O)N(c2c(F)cc(C#Cc3ccccc3)cc2F)C(=O)C[C@@]1(C)c1cnn(CCCO)c1 [Example 22, (6S)-3-[2,6-Difluoro-4-(2-phenylethynyl)phenyl]-6-[1-(3-hydroxypropyl)pyrazol-4-yl]-1,6-dimethyl-hexahydropyrimidine-2,4-dione] | 143 | 56 | 
18 | CCN1C(=O)N(c2c(F)cc(C#Cc3ccccc3)cc2F)C(=O)C[C@@]1(C)c1cnn(C)c1 [Example 12, (6S)-3-[2,6-Difluoro-4-(2-phenylethynyl)phenyl]-1-ethyl-6-methyl-6-(1-methylpyrazol-4-yl)hexahydropyrimidine-2,4-dione] | 95 | 67 | 
19 | Cn1cc([C@]2(C)CC(=O)N(c3c(F)cc(C#Cc4ccccc4)cc3F)C(=O)N2)cn1 [Example 5, (6S)-3-[2,6-Difluoro-4-(2-phenylethynyl)phenyl]-6-methyl-6-(1-methylpyrazol-4-yl)hexahydropyrimidine-2,4-dione] | 103 | 110 | 
20 | CN1C(=O)N(c2c(F)cc(C#Cc3ccccc3)cc2F)C(=O)C[C@@]1(C)c1ncnn1C [Example 4, (6S)-3-[2,6-Difluoro-4-(2-phenylethynyl)phenyl]-1,6-dimethyl-6-(2-methyl-1,2,4-triazol-3-yl)hexahydropyrimidine-2,4-dione] | 95 | 136 | 
21 | CC[C@@]1(c2cnn(C)c2)CC(=O)N(c2c(F)cc(C#Cc3ccccc3)cc2F)C(=O)N1C [Example 18, (6S)-3-[2,6-Difluoro-4-(2-phenylethynyl)phenyl]-6-ethyl-1-methyl-6-(1-methylpyrazol-4-yl)hexahydropyrimidine-2,4-dione] | 135 | 47 | 
